Source: US4619917A, “Substituted 2-furanyl- or 5-oxo-2-furanyl methoxy phosphoryl alkyl cyclimmonium salts” (Sandoz Pharm. Corp., priority 1985, dated 1986)
Where a name gives a salt, the structure may show the parent alone.

How the values were obtained:
[1] = target: T1, Human Platelet PAF Receptor (Homo sapiens, UniProt P25105); test: Human Platelet PAF Receptor Assay test (Test A): inhibition of specific binding of [3H]-PAF to platelets; conditions: [3H]-PAF specific binding to human platelets, room temperature, one hour
T1 construct: from tissue; host or cells: washed human platelets from blood of healthy donors
Procedure: Human blood is obtained by venipuncture of healthy, human donors into an anti-coagulant mixture containing 3.15% of trisodium citrate and 20 μg/ml of Prostaglandin I2 (PGI2) in a ratio of blood to anti-coagulant of 9:1. Platelet rich plasma (PRP) is prepared by centrifugation (250×g) of the blood for 20 minutes at room temperature. The PRP is then centrifuged (900×g) for 10 minutes at room temperature and the platelet pellet is washed two times with Tris-Tyrode's (TT) solution having a pH of 7.4 and containing 0.25% bovine serum albumin (BSA), and to which has been added PGI2 at a final concentration of […]. The platelets are resuspended at […] in TT/BSA containing 1.4 mM CaCl2.2H2 O and 0.7 mM MgCl2.6H2 O. All of the tests are conducted in duplicate and each of the test compounds is evaluated at concentrations of 100, 50, 1 and 0.1 μM. For each determination, the following solutions are mixed:
500 μl of the above-described platelets;
10 μl of [^3 H]-PAF (40,000 counts per minute (cpm) to a final concentration of […]); and
10 μl of the test compound at 50× the desired final concentration,
10 μl of vehicle (total bound), or
10 μl of 1.85×10^-5 M cold PAF (non-specifically bound).
Each mixture is allowed to incubate at room temperature for one hour, after which time the reaction is terminated by the addition of 500 μl of ice cold TT/BSA and centrifugation (900×g) at 4° C. for 10 minutes. […] An additional 2 ml. of Scintiverse II is then added to the vials and, after mixing, the vials are counted for 1 minute in a liquid scintillation spectrometer. The amount of specific binding is calculated as the difference in cpm between the total bound [^3 H]-PAF and non-specifically bound [^3 H]-PAF. The percent inhibition of specific binding is determined by dividing the cpm specifically bound in the presence of the test compound by the cpm specifically bound in total, multiplying by 100 and then subtracting from 100. […]

[2] = test system: PAF-induced hypotension in Wistar rats; test: Inhibition of PAF-induced hypotension (Test D); format: in vivo, rat (male Wistar); conditions: male Wistar rats
Procedure: Yet still further, the compounds of formula I are useful as inhibitors of PAF-induced hypotension as measured by their ability to inhibit the lowering of blood pressure levels induced by PAF according to the following test (Test D):
Male Wistar rats, weighing approximately 300 gm, are anesthetized and their carotid arteries cannulated to enable their diastolic and systolic arterial blood pressure measurements to be recorded. PAF is then administered intravenously at either 100 or 500 ng/kg, and the blood pressure drop (within 10 sec.) and recovery time required to reach the pre-injection blood pressure level are measured. At 100 ng/kg, a 30% decrease in blood pressure and a 3 to 4 minute recovery time are observed, whereas at 500 ng/kg, a 52% decrease in blood pressure and a 10 minute recovery time are observed. In order to measure the effectiveness of a compound for both the inhibition of blood pressure decreases and shortening of the recovery time, the test compound is administered intravenously over a range of between 5 and 7 dosage levels (1 or 2 test animals per dose) and between 1 and 5 minutes prior to the introduction of PAF to generate an ED50.

[3] = test system: human platelet aggregation (PAF-induced); test: Platelet Aggregation Inhibition Assay test (PAIA test): inhibition of PAF-induced human platelet aggregation in vitro; format: cell-based; conditions: PAF-induced human platelet aggregation in PRP, 37° C., C-16 PAF 0.1 μM or 0.01 μM
Procedure: All of the compounds of formula I are useful as platelet activating factor inhibitors as indicated by their ability to inhibit platelet activating factor (PAF)-induced human platelet aggregation in vitro according to the Platelet Aggregation Inhibition Assay test (PAIA test) as follows:
Human subjects are kept aspirin free for one week and fasted overnight. Platelet rich plasma (PRP) is prepared by centrifugation (200×g.) of freshly drawn blood, anti-coagulated with 0.38% sodium citrate (final concentration). Platelet count is adjusted to 250,000 per μl using platelet poor plasma (PPP) obtained by a second centrifugation (700×g.) of the blood sample. An aliquot (0.38 ml.) of the PRP is dispensed into cuvettes and maintained at room temperature (22° C.) until used (but for not more than two hours). The PRP-containing cuvettes are incubated at 37° C. and stirred at 900 rpm within a Payton Aggregometer which is activated to follow the light deflection pattern prior to the addition of the test compound. […] Between one and two minutes after the addition of the test compound, the aggregation inducing agent (C-16 PAF-Sandoz-Hanover), dissolved in a buffer consisting of 0.01M Tris-Tyrodes buffer with 0.25% bovine serum albumin (pH 7.4), is added to the PRP-containing cuvettes in an amount predetermined to give a consistent aggregation response (either 0.1 μM or 0.01 μM). All aggregations are allowed to proceed for 6 minutes from the addition of the inducing agent. The aggregation response is quantitated by determining the area under the curve (AUC). The AUC calculated for the inducing agent alone is considered to be one hundred percent. The potential percent inhibition of the aggregation response is determined by dividing the AUC generated in the presence of the compound by the AUC of the inducing agent alone, multiplying by 100 and then subtracting from 100.

[4] = test system: PAF-mediated extravasation in guinea pigs; test: PAF-induced Extravasation test (Test C), hemoconcentration (hematocrit); format: in vivo, guinea pig; conditions: Cavia porcellus, ia, PAF 100 ng/kg iv, inhibition of percent increase in hematocrit
Procedure: Still further, the compounds of formula I are useful as inhibitors of PAF-mediated extravasation (the extrusion of plasma from the lumen of the blood vessels into the vessel wall and surrounding tissues) measured as a function of hemoconcentration according to the PAF-induced Extravasation test (Test C) as follows.
Male guinea pigs, weighing between 300 and 400 gm, are anesthetized, after which time a femoral catheter is inserted. The test compound is administered intraarterially at one to five minutes prior to the introduction of PAF. The PAF (C18 -Sandoz, Hanover) is dissolved in Tris-Tyrode's bovine serum albumin buffer and administered intravenously (jugular) at 100 ng/kg.
To determine the hematocrit value, which is employed to index hemoconcentration and is defined as the percent of packed red blood cells in a sample of blood which is centrifuged to separate plasma from the cellular components, blood samples are collected in 50 μl heparinized hematocrit tubes. […] The tubes are then centrifuged and the percent of packed red blood cells (hematocrit) is measured (PAF induces a maximal increase in hematocrit at 5 to 7 minutes subsequent to the injection of PAF). The percent increase in hematocrit over the value prior to the injection of PAF is calculated. […]

[5] = test system: PAF-mediated bronchoconstriction in guinea pigs; test: PAF-induced Pulmonary Inflation Pressure (PIP) Increase test (Test B); format: in vivo, guinea pig; conditions: PAF 100 ng/kg iv, slowly decreases to baseline
Procedure: Furthermore, in view of their usefulness as PAF receptor antagonists, the compounds of formula I have been found useful as inhibitors of PAF-mediated bronchoconstriction, which property was evaluated by the PAF-induced Pulmonary Inflation Pressure (PIP) Increase test (Test B) as follows:
Male guinea pigs, weighing between 300 and 400 gm, are anesthetized, after which time trachea tube, carotid and jugular catheters are inserted. The test animal is then force ventilated employing a small animal Harvard respirator and the resistance to lung inflation (PIP) is measured utilizing a pressure transducer and recorder. The test compound is administered either orally at 30 minutes prior to or intravenously (jugular) at 5 minutes prior to the introduction of PAF. The PAF (C18 -Sandoz, Hanover) is dissolved in Tris-Tyrode's bovine serum albumin buffer and administered intravenously (jugular) at 100 ng/kg. Any blood pressure measurements taken are recorded from a transducer attached to the carotid catheter. […] A reading at 15 minutes after the administration of PAF is termed the endpoint PIP. The effect of the test compound on the PIP response is determined by the difference between the percent increase in maximal PIP over baseline for the test animal to which has been administered PAF and the test compound compared to the test animal to which only PAF has been administered.

T1 sequence (P25105 whole entry): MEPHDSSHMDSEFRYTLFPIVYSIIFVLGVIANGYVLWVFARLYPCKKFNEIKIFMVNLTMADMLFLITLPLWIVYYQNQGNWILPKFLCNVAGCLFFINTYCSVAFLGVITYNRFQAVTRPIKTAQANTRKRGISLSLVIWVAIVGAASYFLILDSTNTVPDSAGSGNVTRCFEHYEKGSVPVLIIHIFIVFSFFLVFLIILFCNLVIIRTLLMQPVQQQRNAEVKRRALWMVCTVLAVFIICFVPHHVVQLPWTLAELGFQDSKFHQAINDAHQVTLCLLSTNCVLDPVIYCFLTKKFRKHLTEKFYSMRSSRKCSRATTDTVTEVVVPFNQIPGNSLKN

| Molecule | IC50 [1] | ED50 ([2]; Rattus norvegicus, iv, PAF-induced hypotension) | IC50 [3] | ED50 [4] | decrease in blood pressure ([2]; PAF 100 ng/kg iv) | decrease in blood pressure ([2]; PAF 500 ng/kg iv) | recovery time to pre-injection blood pressure level ([2]; PAF 500 ng/kg iv) | duration of long term PIP response [5] |
| --- | --- | --- | --- | --- | --- | --- | --- | --- |
| CCCCCCCCCCCCCCCCCCNC(=O)OCC1(COP(=O)([O-])OCC[n+]2ccsc2)CCCO1 (stereo not shown) [Example 3, 3-[2-[(2-Octadecylaminocarbonyloxymethyltetrahydrofuran-2-yl-methoxy)-hydroxyphosphinyloxy]-ethane]-thiazolium hydroxide inner salt-4-oxide] | 0.47 µM | 1.5 mg/kg | 3.5 µM | 0.3 mg/kg |  |  |  |  |
| CCCCCCCCCCCCCCCCCCOCCC1(COP(=O)([O-])OCC[n+]2ccsc2)CCC(=O)O1 (stereo not shown) [Example 1, 3-[2-[(2-Octadecyloxy)ethyl-5-oxo-tetrahydrofuran-2-yl]methoxyhydroxyphosphinyloxy-ethane]thiazolium hydroxide-inner salt-4-oxide] | 1.8 µM |  | 10.5 µM | 0.25 mg/kg |  |  |  |  |
| 1-O-alkyl-2-acetyl-sn-glyceryl-3-phosphorylcholine [PAF] |  |  |  |  | 30% | 52% | 10 min | at least 30 minutes |
| CCCCCCCCCCCCCCCCCCOCC1(COP(=O)([O-])OCC[n+]2ccsc2)CCCO1 (stereo not shown) [Example 2, 3-[2-[(2-Octadecyloxymethyltetrahydrofuran-2-yl-methoxy)-hydroxyphosphinyloxy]-ethane]-thiazolium hydroxide inner salt-4-oxide] | 3.3 µM |  | 81.5 µM |  |  |  |  |  |
